PMC9139161, “Phenolics from Chrozophora oblongifolia Aerial Parts as Inhibitors of α-Glucosidases and Advanced Glycation End Products: In-Vitro Assessment, Molecular Docking and Dynamics Studies” (Biology, 2022)
Values joined by “and” are separate entries in the source; they are usually repeats but may differ in a detail not shown here. Equal entries are not always repeated.

Experiments:
[1] = test system: advanced glycation end products (AGEs) formation, BSA-fructose model; assay: AGEs formation inhibition, BSA-fructose assay; format: biochemical; conditions: AGEs fluorescence, 72 h, 37 °C; read-out: BSA-Fructose Model IC50 (Mean ± SE)
Protocol: (§1) The isolated compounds were prepared at final concentrations of 500 µM in DMSO in the BSA-fructose assay, and 1000 µM in all other AGEs assays. Compounds that exceeded 50% inhibition at this concentration were serially diluted to determine their IC50. All tests were conducted using quercetin (positive control).
According to the previous report, the inhibition test for AGE formation was assessed using the BSA-fructose model. Briefly, BSA (50 mg/mL) and fructose (1.25 M) (in 200 mM phosphate buffer, pH 7.4, with 0.02% sodium azide) were incubated with Sample/blank in the dark for 72 h at 37 °C, (1:1:1 by volume). On a microplate reader (Fluostar Omega BMG Labtech, Ortenberg, Germany), fluorescent AGEs were detected using excitation and emission wavelengths of 355 nm and 460 nm, respectively. Triplicates of all experiments were performed, and the percentage of AGEs inhibition was calculated.

[2] = Ferric reducing antioxidant power (FRAP) assay; conditions: ascorbic acid equivalents; mean ± SD, n = 3
Protocol: Isolated compounds were dissolved in DMSO to prepare a 0.5 mg/mL concentration, meanwhile, the positive control (ascorbic acid) was used to prepare a stock solution of 1000 µM in water; from which seven concentrations were prepared including 15.625, 31.25, 62.5, 125, 250 and 500 µM to construct the dose-response curve. The method of the assay depends on the reduction of Fe^3+ to Fe^2+, which is chelated by 2,4,6-tris(2-pyridyl)-s-triazine (TPTZ) to form Fe^2+-TPTZ complex which is known as FRAP (ferric reducing antioxidant power). Briefly, 190 μL of FRAP reagent (300 mM sodium acetate buffer pH 3.6, 10 mM TPTZ, and 20 mM ferric chloride, (10:1:1)) was incubated in the dark with 10 μL of the isolated compound in a 96-well plate for 30 min at 37 °C and absorbance was determined at 620 nm using microplate reader (Tecan, San Jose, CA, USA). Data are represented as means (n = 3) ± SD and the antioxidant effect of the extract was calculated as µM Ascorbic acid equivalents by substitution in the linear regression equation (Supplementary Figure S3).

[3] = target: T1, porcine pancreatic lipase type II (Sus scrofa, UniProt P00591); assay: Pancreatic lipase inhibition (p-NPD substrate); format: biochemical; conditions: for IC50: porcine pancreatic lipase, p-NPD substrate, read-out: Pancreatic lipase IC50 (Mean ± SE)
T1 construct: purchased sigma Aldrich L3126
T1 sequence (P00591 1-450): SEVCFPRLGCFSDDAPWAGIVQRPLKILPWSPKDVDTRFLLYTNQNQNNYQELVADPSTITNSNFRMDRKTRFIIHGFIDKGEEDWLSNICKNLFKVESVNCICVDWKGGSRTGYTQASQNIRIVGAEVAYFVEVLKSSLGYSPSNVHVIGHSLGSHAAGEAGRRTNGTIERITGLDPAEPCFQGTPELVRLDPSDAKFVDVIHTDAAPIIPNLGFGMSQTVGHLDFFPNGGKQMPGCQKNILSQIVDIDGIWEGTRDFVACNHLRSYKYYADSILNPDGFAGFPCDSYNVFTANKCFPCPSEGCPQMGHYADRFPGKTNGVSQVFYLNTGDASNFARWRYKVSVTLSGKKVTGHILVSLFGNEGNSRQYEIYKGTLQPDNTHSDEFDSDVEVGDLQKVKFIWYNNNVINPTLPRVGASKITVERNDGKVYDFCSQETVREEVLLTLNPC
Protocol: The inhibition of pancreatic lipase activity was assessed using p-nitrophenyl dodecanoate (p-NPD, Sigma-Aldrich, St. Louis, MO, USA cat#N0252) as substrate and porcine pancreatic lipase type II (PPL, sigma Aldrich, cat#L3126) which was described previously with slight modification. Solutions of the provided compounds were prepared in final concentrations of 50 µM in 5% DMSO. […] In a Tris-HCl buffer (100 mM, pH 8); 50 μL of PPL (1 mg/mL) was incubated with 25 μL of samples/blank for 10 min at 37 °C. Then, 10 μL of solution p-NPD (10 mM, in isopropanol) was added followed by dilution of the final volume to 200 μL with Tris-HCl buffer. The mixture was incubated for 20 min at 37 °C and absorbance was then measured at 405 nm on a TECAN microplate reader (Männedorf, Switzerland). After that, the percentage of lipase inhibition was assessed (Supplementary Table S1 and Figure S1).

DPPH assay = conditions: read-out: DPPH assay IC50 (Mean ± SE)
Protocol: Isolated compounds were prepared in final concentrations of 1000 µM in DMSO. Compounds that exceeded 50% inhibition at this concentration were serially diluted to determine their IC50. Ascorbic acid was used as a positive control, prepared in a concentration of 100 µM in water from which six concentrations were prepared to calculate its IC50. The method is based on the reduction of free radical of 2,2-diphenyl-1-picrylhydrazyl (DPPH). Briefly, in a 96-well plate, 20 μL of the isolated compound was incubated for 20 min in the absence of light with 180 μL of DPPH reagent (100 μM). The reduction of intensity in the color of DPPH was assessed on a microplate reader (TECAN, Männedorf, Switzerland) at 540 nm (Supplementary Table S2).

[4] = test system: advanced glycation end products (AGEs) formation, BSA-methylglyoxal model; assay: AGEs formation inhibition, BSA-methylglyoxal assay; format: biochemical; conditions: AGEs fluorescence, 72 h, 37 °C; read-out: BSA-Methylglyoxal Model IC50 (Mean ± SE)
Protocol: as §1
AGEs inhibitory activity of the isolated compounds was determined according to the reported procedures with slight modification. Briefly, in black 96-microwell plates, samples were incubated for 72 h at 37 °C in the dark with bovine serum albumin (BSA, 50 mg/mL) (in 200 mM phosphate buffer, pH 7.4, with 0.02% sodium azide) and methyl-glyoxal (53.3 mM, in distilled water), (1:1:1 v/v/v). On a microplate reader (Fluostar Omega/BMG Labtech/Germany), fluorescent AGEs were detected using excitation and emission wavelengths of 355 nm and 460 nm, respectively. Triplicates of all experiments were performed.

Row | Structure (SMILES) | IC50 [1] | IC50 [3] | Pancreatic lipase inhibitory effect (in words) ([3]; till 50 μM concentration) | IC50 (DPPH assay) | IC50 [4] | inhibition at 50 µM [3] | FRAP [2]
1 | O=c1cc(-c2ccc(O)cc2)oc2cc(O[C@@H]3O[C@H](CO)[C@@H](O)[C@H](O)[C@H]3O)cc(O)c12 [Compound 1, apeginin-7-O-β-D-glucoside] | 303 µM | > 50 µM |  | 366 µM | 668 µM | 4.48% | 0.225±0.003 mM AAE/mg and 0.23 mM AAE/mg
2 | O=C(O)[C@H]1O[C@@H](Oc2c(-c3ccc(O)c(O)c3)oc3cc(O)cc(O)c3c2=O)[C@H](O)[C@@H](O)[C@@H]1O [Compound 2, quercetin-3-O-β-D-glucuronic acid] | 262 µM | > 50 µM |  | 29 µM | 1880 µM | 1.92% | 0.727±0.021 mM AAE/mg and 0.73 mM AAE/mg
3 | C[C@@H]1O[C@@H](OC[C@H]2O[C@@H](Oc3c(-c4ccc(O)c(O)c4)oc4cc(O)cc(O)c4c3=O)[C@H](O)[C@@H](O)[C@@H]2O)[C@H](O)[C@H](O)[C@H]1O [Compound 4, rutin] | 37 µM | > 50 µM |  | 19 µM | 493 µM |  | 2.658±0.168 mM AAE/mg and 2.66 mM AAE/mg

More lines, main results first:

Row | IC50 [1] | IC50 [3] | Pancreatic lipase inhibitory effect (in words) ([3]; till 50 μM concentration) | IC50 (DPPH assay) | IC50 [4] | inhibition at 50 µM [3] | Structure (SMILES) | FRAP [2]
4 | 35 µM | > 50 µM | did not show any inhibitory effect | 4 µM | 657 µM |  | O=C(OC[C@H]1O[C@H](OC(=O)c2cc(O)c(O)c(O)c2)[C@H](O)[C@@H](OC(=O)c2cc(O)c(O)c(O)c2)[C@@H]1O)c1cc(O)c(O)c(O)c1 (stereo in doubt) [Compound 5, 1,3,6-trigalloyl glucose] | 7.228±0.279 mM AAE/mg and 7.23 mM AAE/mg
5 | 500 µM | > 50 µM |  | 123 µM | > 1200 µM | 2.26% | O=C(O)[C@H]1O[C@@H](Oc2c(-c3ccc(O)c(O)c3)oc3cc(O)cc(O)c3c2=O)[C@H](O)[C@@H](O)[C@H]1O [Compound 3, quercetin-3-O-β-D-galacturonic acid] | 0.494±0.066 mM AAE/mg and 0.49 mM AAE/mg
